Source: patent publication US20100010219A1, “METHOD FOR PRODUCING PYRROLIDINE COMPOUND” (JAPAN TOBACCO INC., priority 2006, published 2010)
Where a name gives a salt, the structure may show the parent alone. Read-outs that look alike come from different tables or passages of the source.

Biological target: T1, human HSD-1 (recombinant HSD-1) (Homo sapiens, UniProt P28845)
T1 construct: made in house
Experiment: HSD-1 activity inhibitory action in vitro (SPA, conversion of cortisone to cortisol)
Format: biochemical

[1] = recombinant human HSD-1 expressed using baculovirus system, 10 nM 3H cortisone, 500 μM NADPH, room temperature 90 to 120 min, read-out: hHSD1 (IC50 (nM))

T1 sequence (P28845 whole entry): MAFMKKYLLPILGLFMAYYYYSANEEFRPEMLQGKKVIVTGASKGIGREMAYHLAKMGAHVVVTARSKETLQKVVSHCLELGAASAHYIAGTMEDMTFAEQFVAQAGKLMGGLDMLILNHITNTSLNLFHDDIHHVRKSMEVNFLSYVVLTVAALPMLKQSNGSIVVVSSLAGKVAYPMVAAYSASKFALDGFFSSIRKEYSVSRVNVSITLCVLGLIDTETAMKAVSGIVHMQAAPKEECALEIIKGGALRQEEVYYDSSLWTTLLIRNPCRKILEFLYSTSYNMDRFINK

Structure (SMILES) | IC50 [1] | IC50
CC(C)(C(N)=O)N1CCC(n2ncc(C(=O)N3CC[C@@H](c4ccccc4C(F)(F)F)C3)c2C2CC2)CC1 [Example 96, 1-{1-[1-(1-carbamoyl-1-methylethyl)piperidin-4-yl]-5-cyclopropyl-1H-pyrazole-4-carbonyl}-[(S)-3-(2-trifluoromethylphenyl)]pyrrolidine hydrochloride] | < 30 nM | –
O=C1CCN(C(=O)N2CCC(n3ncc(C(=O)N4CC[C@@H](c5ccccc5C(F)(F)F)C4)c3C3CC3)CC2)CC1 [Example 44, 1-{5-cyclopropyl-1-[1-(4-oxopiperidine-1-carbonyl)piperidin-4-yl]-1H-pyrazole-4-carbonyl}-[(S)-3-(2-trifluoromethylphenyl)]pyrrolidine] | – | < 30 nM
O=C(c1cnn(C2CCNCC2)c1C1CC1)N1CC[C@@H](c2ccccc2C(F)(F)F)C1 [Example 2, 1-[5-cyclopropyl-1-(piperidin-4-yl)-1H-pyrazole-4-carbonyl]-[(S)-3-(2-trifluoromethylphenyl)]pyrrolidine hydrochloride] | < 30 nM | –
O=C(O)C1CCN(C(=O)N2CCC(n3ncc(C(=O)N4CC[C@@H](c5ccccc5C(F)(F)F)C4)c3C3CC3)CC2)CC1 [Example 25, 1-{1-[1-(4-carboxypiperidine-1-carbonyl)piperidin-4-yl]-5-cyclopropyl-1H-pyrazole-4-carbonyl}-[(S)-3-(2-trifluoromethylphenyl)]pyrrolidine] | < 30 nM | –
CC(=O)N1CCN(C(=O)N2CCC(n3ncc(C(=O)N4CC[C@@H](c5ccccc5C(F)(F)F)C4)c3C3CC3)CC2)CC1 [Example 31, 1-{1-[1-(4-acetylpiperazine-1-carbonyl)piperidin-4-yl]-5-cyclopropyl-1H-pyrazole-4-carbonyl}-[(S)-3-(2-trifluoromethylphenyl)]pyrrolidine] | < 30 nM | –
O=C(OCCN1CCCCC1)N1CCC(n2ncc(C(=O)N3CC[C@@H](c4ccccc4C(F)(F)F)C3)c2C2CC2)CC1 [Example 60, 1-{5-cyclopropyl-1-[1-(2-piperidin-1-yl-ethoxycarbonyl)piperidin-4-yl]-1H-pyrazole-4-carbonyl}-[(S)-3-(2-trifluoromethylphenyl)]pyrrolidine hydrochloride] | < 30 nM | –
CC(C)[C@@H](C(=O)O)N(C)C(=O)N1CCC(n2ncc(C(=O)N3CCC(c4ccccc4C(F)(F)F)C3)c2C2CC2)CC1 (stereo partly drawn) [Example 142, 1-(5-cyclopropyl-1-{1-[((S)-1-carboxy-2-methyl-propyl)methylcarbamoyl]piperidin-4-yl}-1H-pyrazole-4-carbonyl)-3-(2-trifluoromethylphenyl)pyrrolidine] | < 30 nM | –
C[C@@H]1CN(C(=O)c2cnn(C3CCN(c4ncccn4)CC3)c2C2(C)CC2)C[C@H]1c1ccccc1 (relative stereo) [Example 177, {(3S*,4R*)-3-methyl-1-{5-(1-methylcyclopropyl)-1-[1-(pyrimidin-2-yl)piperidin-4-yl]-1H-pyrazole-4-carbonyl}-4-phenylpyrrolidine hydrochloride] | < 30 nM | –
O=C(c1cnn(C2CCN(C(=O)N3CC(F)(F)C(F)(F)C3)CC2)c1C1CC1)N1CC[C@@H](c2ccccc2C(F)(F)F)C1 [Example 48, 1-{5-cyclopropyl-1-[1-(3,3,4,4-tetrafluoropyrrolidine-1-carbonyl)piperidin-4-yl]-1H-pyrazole-4-carbonyl}-[(S)-3-(2-trifluoromethylphenyl)]pyrrolidine] | < 30 nM | –
NCCC(=O)N1CCC(n2ncc(C(=O)N3CC[C@@H](c4ccccc4C(F)(F)F)C3)c2C2CC2)CC1 [Example 83, 1-{1-[1-(3-aminopropionyl)piperidin-4-yl]-5-cyclopropyl-1H-pyrazole-4-carbonyl}-[(S)-3-(2-trifluoromethylphenyl)]pyrrolidine hydrochloride] | < 30 nM | –
O=C(c1cnn(C2CCN(C(=O)N3CC(CO)C3)CC2)c1C1CC1)N1CC[C@@H](c2ccccc2C(F)(F)F)C1 [Example 28, 1-{5-cyclopropyl-1-[1-(3-hydroxymethylazetidine-1-carbonyl)piperidin-4-yl]-1H-pyrazole-4-carbonyl}-[(S)-3-(2-trifluoromethylphenyl)]pyrrolidine] | < 30 nM | –
